{
  "source": "patent US20240342126A1",
  "about": "“HALLUCINOGEN-FATTY ACID COMBINATION” (Mindset Pharma Inc., priority 2021, published 2024)",
  "key": {"[1]": {"assay": "Pharmacokinetics in plasma and CSF after i.n. or s.c. administration of 5-MeO-DMT formulations", "conditions": "Sprague-Dawley, rat, plasma, iv, 1 mg/kg"}, "C57BL/6J mice": {"test_system": "C57BL/6J mice", "assay": "Mouse head twitch experiments", "format": "in vivo", "conditions": "for head twitch response of combination with linoleic acid vs test compound alone: equimolar dose of linoleic acid, SC; for effect on test compound-induced head twitches: M100907 0.5 mg/kg IP pretreatment", "protocol": "Male, C57BL/6J mice (body weight range 20-30 g) were dosed with the appropriate dose(s) of test compound, or combination of test compounds, and following pre-treatment, the animals were placed in individual observation chambers. Animals were visually assessed for the incidence head twitches continuously over a 1 hr period. Head twitches were defined as a rapid jerk of the head which was not elicited by an external tactile stimulus (Corne S J, Pickering R W (1967) Psychopharmacologia 11 (1): 65-78). Each head twitch was individually counted by a trained observer, and the data expressed as the mean±SEM of 4-10 mice per group. In addition to the total number of head twitches recorded over the 1 hr observation period, head twitches were also scored according to each specific 10 min time bin within the 1 hr observation period (i.e. 0-10 min, 10-20 min, 20-30 min, etc).\nTwo types of experiments were conducted. In one, the effect of linoleic acid in combination with a test compound (psilocybin or 1-4) was studied. In these experiments, both test compounds, or saline control was injected subcutaneously (SC) 1 min prior to testing. […] In these experiments, M100907 (0.5 mg/kg IP) was injected 30 min prior to a single dose of test compound (i.e. psilocybin or I-4). […] 1 min following SC administration of the test compound, the mice were placed in the observation chambers for measurement of head twitch response."}, "human 5-HT2A": {"target": "human 5-HT2A (Homo sapiens, UniProt P28223)", "sequence (P28223 whole entry)": "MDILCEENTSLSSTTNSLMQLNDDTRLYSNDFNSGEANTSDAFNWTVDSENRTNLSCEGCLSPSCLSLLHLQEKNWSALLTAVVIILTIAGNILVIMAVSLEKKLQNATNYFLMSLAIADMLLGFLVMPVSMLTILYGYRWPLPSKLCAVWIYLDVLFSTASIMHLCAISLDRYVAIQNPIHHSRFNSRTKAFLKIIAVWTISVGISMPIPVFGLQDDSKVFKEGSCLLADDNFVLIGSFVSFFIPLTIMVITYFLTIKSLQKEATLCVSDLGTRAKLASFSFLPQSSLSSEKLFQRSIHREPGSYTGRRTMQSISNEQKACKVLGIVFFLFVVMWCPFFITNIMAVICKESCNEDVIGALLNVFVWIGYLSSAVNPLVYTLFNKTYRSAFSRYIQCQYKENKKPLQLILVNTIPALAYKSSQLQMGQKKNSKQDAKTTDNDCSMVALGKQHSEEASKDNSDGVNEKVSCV", "conditions": "read-out: binding affinity 5-HT2A; cited from earlier work"}},
  "note": "pKi: −log10 of the molar value. Entries after “also recorded” stand apart in the source; their conditions may differ.",
  "data": [
    {"smiles": "COc1ccc2[nH]cc(CCN(C)C)c2c1", "note": "[Compound 5-MeO-DMT, 5-methoxy-N,N-dimethyltryptamine]", "values": [
      {"measurement": "AUC(0-inf)", "setting": "[1]", "value": 35.3, "unit": "ng·h/mL"}
    ]},
    {"smiles": "[2H]C([2H])([2H])N(C([2H])([2H])[2H])C([2H])([2H])C([2H])([2H])c1c[nH]c2cccc(O)c12", "note": "[Compound I-4, 3-(2-(bis(methyl-d3)amino)ethyl-1,1,2,2-d4)-1H-indol-4-ol]", "values": [
      {"measurement": "head twitches over 1 hr (mean±SEM)", "setting": "C57BL/6J mice; 0.3 mg/kg SC + linoleic acid at […] SC", "value": "7.8±0.6"},
      {"measurement": "head twitches over 1 hr (mean±SEM)", "setting": "C57BL/6J mice; 0.3 mg/kg SC + vehicle", "value": "3.3±0.8"},
      {"measurement": "head twitch response of combination with linoleic acid vs test compound alone", "setting": "C57BL/6J mice", "value": "more head twitches"},
      {"measurement": "head twitch response of combination with linoleic acid vs test compound alone", "setting": "C57BL/6J mice; listed as 1-4", "value": "greater head twitch response"}
    ]},
    {"smiles": "COc1cccc([C@H](O)C2CCN(CCc3ccc(F)cc3)CC2)c1OC", "note": "[Compound M100907, reference compound]", "values": [
      {"measurement": "effect on test compound-induced head twitches", "setting": "C57BL/6J mice; head twitches induced by I-4 6.2 mg/kg SC", "value": "completely blocked"},
      {"measurement": "effect on test compound-induced head twitches", "setting": "C57BL/6J mice; head twitches induced by psilocybin 3 mg/kg SC", "value": "completely blocked"}
    ]},
    {"smiles": "CN(C)CCc1c[nH]c2ccccc12", "note": "[DMT, N,N-dimethyltryptamine]", "values": [
      {"measurement": "pKi", "setting": "human 5-HT2A", "value": 6.63}
    ]},
    {"smiles": "CCCCC/C=C\\C/C=C\\CCCCCCCC(=O)O", "note": "[linoleic acid]", "values": [
      {"measurement": "head twitches over 1 hr (mean±SEM)", "setting": "C57BL/6J mice; linoleic acid alone 10 mg/kg SC", "value": "1.0±0.7"},
      {"measurement": "head twitches relative to vehicle", "setting": "C57BL/6J mice; linoleic acid alone 0.1-10 mg/kg SC", "value": "did not induce head twitches to a significant degree; also recorded: no significant effect"}
    ]}
  ]
}
